From US11091749B2, “Deimmunized lysostaphin and methods of use” (TRUSTEES OF DARTMOUTH COLLEGE, priority 2014, dated 2021)

What was measured:
pooled splenocytes = experiment: Transgenic DR4 murine immunogenicity study (memory response, splenocyte proliferation); assay type: in vivo; conditions: wild-type LST primed mice, 100 μg rechallenge
Method: Twelve female 6-8 week old DR4 transgenic mice (Abb Knockout/Transgenic HLA-DR4; B6.129S2-H2-Ab1tm1GruTg(HLA-DRA/H2-Ea,HLA-DRB1*0401/H2-Eb)1Kito; Taconic Farms, Germantown, N.Y.) were divided into four groups of three each and immunized with 50 μl subcutaneous injections of wild-type LST using one of the following four schemes: (i) initial immunization with 100 μg enzyme in CFA, followed by 100 μg boosts in incomplete Freund's adjuvant (IFA) on days 14 and 28; (ii) initial immunization with 20 μg enzyme in CFA, followed by 20 μg boosts in IFA on days 14 and 28; (iii) initial immunization with 100 μg enzyme in PBS buffer, followed by 100 μg boosts in PBS buffer on days 7, 14, 21 and 28; (iv) initial immunization with 20 μg enzyme in PBS buffer, followed by 20 μg boosts in PBS buffer on days 7, 14, 21 and 28. Serum IgG antibody titers against wild-type LST were measured on days 13, 20, 27, 34, and 62. […] Mice were housed without further manipulation until week 23 of the study, at which time serum IgG antibody titers were again measured and mice were divided into two experimental arms having equivalent average antibody titers. Note that during the week 9 to week 23 recovery period, two mice (the lowest titer 100 μg no adjuvant and one of the high titer 100 μg adjuvant) began suffering hair loss, weight loss, and reduced mobility and were sacrificed as per the IACUC approved protocol. […]

MRSA strain USA400 [1] = experiment: In vivo efficacy of F11, intraperitoneal MRSA challenge; set-up: species or system C57BL/6 mice; conditions: 100 μg single bolus i.v. 1 h after 2×10^8 MRSA i.p.
Method: Mice were challenged with an intraperitoneal injection of 2×10^8 MRSA strain USA400, and 1 hour later the mice were treated with 100 μg wild-type LST, F11 or PBS. The percent survival is shown.
The in vivo efficacy of the F11 variant was further analyzed in C57BL/6 mice. Mice were challenged with an intraperitoneal injection of 2×10^8 MRSA strain USA400, and 1 hour later the mice were treated with 100 μg wild-type LST, F11 or PBS, administered as a single bolus intravenous injection. The survival rate for both protein treatments was 1/3. The 100 μg dosage was selected because wild-type LST is known to be only partially efficacious at this dose.

MRSA strain USA400 [2] = experiment: In vitro inhibitory activity (MIC); assay type: cell-based, Staphylococcus aureus; conditions: 50° C. for 1 hour prior to assay
From the text: F11, P12 and F13 were screened for in vitro inhibitory activity against MRSA strain USA400 (FIG. 7).

MRSA strain 3425-3 = experiment: MIC assay; assay type: cell-based, Staphylococcus aureus; conditions: biological duplicates
Method: (§1) The MICs of wild-type lysostaphin and its variants were determined by adding 2-fold serial dilutions of enzymes into wells of a polypropylene 96-well plate (Costar 3879) containing ˜40,000 S. aureus SA113 (or S. aureus 6445, 3425-1, 3425-3) cells in Muller Hinton broth (BD) supplemented with 2% NaCl and 0.1% bovine serum albumin, yielding a total volume of 100 μl. Plates were grown overnight at 37° C. with shaking at 900 rpm on an Orbit P4 orbital shaker (Labnet; Edison, N.J.). […] The assay was performed in triplicate for each enzyme.

S. aureus 3425-1 = experiment: MIC assay; assay type: cell-based, Staphylococcus aureus; conditions: biological duplicates
Method: as §1

S. aureus SA113 = experiment: MIC assay; assay type: cell-based, Staphylococcus aureus
Method: as §1

MRSA strain USA400 [3] = experiment: S. aureus recurrent bacteremia model, in vivo efficacy; set-up: species or system DR4 mice; conditions: 500 μg i.v.
Method: Prior to bacterial challenge, the immune systems of DR4 mice (N=3 per group) were primed 3-times with weekly subcutaneous injections of 100 μg LST^WT or Lib5 variant in sterile phosphate buffered saline (PBS: 2.7 mM KCl, 1.5 mM KH2PO4, 8.9 mM Na2HPO4, 136.9 mM NaCl, pH 7.4). These immunizations and boosts contained no adjuvant. Anti-LST antibody titers were determined as described above. For the first cycle of infection and treatment, mice were challenged with intraperitoneal administration of 2×10^8 CFU Staphylococcus aureus strain USA400 in a 3% suspension of porcine mucin, and one hour later were treated by intravenous tail vein administration of 500 μg of LST^WT or Lib5 variant in sterile PBS. Mice that were rescued by the enzyme treatment underwent subsequent infection and treatment cycles at weekly intervals. To compensate for development of innate murine antibacterial immunity following the first bacterial exposure, mice were challenged with 1×10^9 CFU USA400 in the second and third cycles, but the treatments remained at 500 μg of the appropriate protein. As a control to verify the lethal bacterial dose in each cycle, one mouse was given a sham treatment of PBS.
Using an S. aureus recurrent bacteremia model, the extent to which LST immunogenicity impacted in vivo efficacy was subsequently evaluated. […]

Wild-Type: wild-type lysostaphin (SEQ ID NO:49) produced in P. pastoris; aglycosylated Ser126Pro backbone in the design studies [reference compound]
stimulation index (pooled splenocytes): 1.8 fold | survival rate (MRSA strain USA400 [1]): 1/3 | retained original MIC activity after heating (MRSA strain USA400 [2]): full | MIC Strain 3425-3 (MRSA strain 3425-3): 0.03 µg/mL | MIC Strain 3425-1 (S. aureus 3425-1): 0.04 µg/mL | MIC (S. aureus SA113; S. aureus SA113, purified enzyme): 0.0351 µg/mL | MIC Strain SA113 (S. aureus SA113; biological duplicates): 0.02 µg/mL | rescue from infection (MRSA strain USA400 [3]; first cycle, 2×10^8 CFU i.p.): rescued | rescue from infection (MRSA strain USA400 [3]; second cycle, 10^9 CFU): failed to rescue any of the three treated mice
